Test results published in patent publication US11466024B2, “Bicylic compound acting as an inhibitor” (CHIA TAI TIANQING PHARMACEUTICAL GROUP CO., LTD., priority 2017, dated 2022).

Tests used:
RORC2-LBD = target: T1, RORC2-LBD (Homo sapiens, UniProt P51449); experiment: In vitro test for inhibitory activity on RORγ: TR-FRET screening (RORC2-LBD / SRC1 peptide interaction); format: biochemical; conditions: Value of the concentration required for 50% inhibition (EC50) of RORγ, 15 nM RORc-LBD, 200 nM SRC1 peptide, 4° C. overnight
T1 sequence (P51449 269-508 limits assumed): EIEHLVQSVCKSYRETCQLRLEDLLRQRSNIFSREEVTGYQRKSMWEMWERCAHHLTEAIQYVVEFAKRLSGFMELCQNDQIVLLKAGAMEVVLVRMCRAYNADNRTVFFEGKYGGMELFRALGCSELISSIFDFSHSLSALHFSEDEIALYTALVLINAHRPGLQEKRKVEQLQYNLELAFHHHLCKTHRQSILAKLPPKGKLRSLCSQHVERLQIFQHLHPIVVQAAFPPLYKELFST
Description: The compounds of the present application was able to regulate (inhibit) the bioactivity of the nuclear receptor RORγ, and the strength of this regulatory (inhibitory) effect could be evaluated by a TR-FRET (time-resolved fluorescence resonance energy transfer) screening system. Nuclear receptor cofactors (co-activators and co-inhibitors) could regulate the transcription of a target gene by the interaction with nuclear receptors. If a ligand (test compound) affected the interaction between the nuclear receptors and the cofactors, this ligand (test compound) was able to regulate the transcription of the corresponding gene.
This method adopted the TR-FRET (time-resolved fluorescence resonance energy transfer) technique to determine the ability of a compound to regulate the interaction between the polypeptide indirectly bound to APC […] (namely, APC was indirectly bound to the polypeptide by binding to Streptavidin and biotin) and RORC2-LBD linked to a europium (Eu)-labeled anti-His antibody (Perkin Elmer #AD0111). In the absence of the compound, RORC2 could bind to an APC-modified polypeptide. If the compound was an agonist, it could enhance the interaction between RORC2 and the APC-modified polypeptide after binding to RORC2. On the contrary, if the compound was an inverse agonist, it could inhibit the interaction between RORC2 and the APC-modified polypeptide after binding to RORC2. When the APC-modified polypeptide and the Eu-labeled anti-His antibody-RORC2-LBD complex approached to each other and the distance therebetween was within a certain distance, energy transfer could occur and a TR-FRET signal was generated.
A buffer solution comprising 50 mM Tris (pH 7.0), 50 mM KCl, 1 mM Na-EDTA, 0.01% BSA (0.1 mg/ml), and 0.1 mM DTT was freshly formulated prior to the experiment.
2.3 Formulation of a RORγ-containing working solution. Prior to the test, a working solution containing 1.67 nM Eu/anti-His and 0.75 μl/well of SF9 cell lysate was freshly formulated, and was placed on ice before use. 25.05 nM of RORγ was added to the working solution.
2.5 Ten concentration gradients were set for each test compound, and duplicate wells were set for each concentration. The formulating method of the test compounds was as follows: […]
2) 15 μl of the RORγ-containing working solution was added to columns 1 to 21 of the tested 384-well plate (the final concentration of Eu/anti-His was 1 nM, and the final concentration of RORg was 15 nM); and […]
9) data analysis was performed using the ratio of the numerical value detected at an emission wavelength of 665 nm to the numerical value detected at an emission wavelength of 615 nm. […]

[1] = system: MOG35-55-induced experimental autoimmune encephalomyelitis (EAE); experiment: In vivo pharmacodynamic research on MOG35-55-induced experimental autoimmune encephalomyelitis (EAE) in mice; conditions: G4, 75 mg/kg p.o. b.i.d
Experimental: The day of immunization was recorded as day 0, and the subsequent days were marked sequentially. Mice were anesthetized with isoflurane, and 100 μl of the emulsion was administered via subcutaneous injection at three sites (the middle part between shoulder and back, and two sides of the tail that were close to the groin), namely, 33 μl of the emulsion for each site. 0 hour and 48 hours after the injection of the emulsion, 200 ng (i.e. 200 μl) of the PTX solution was intraperitoneal injected. Mice in the normal group were not required to be immunized.
After the immunization on day 0, the immunized mice were randomly divided into 3 groups with 10 mice in each group according to the body weights except for the mice in the normal group, the details were shown in Table 1. FTY720 served as a positive drug, and a dose of […] was an effective dose commonly used in the EAE model.
The first group was normal mice without any treatment; vehicle was administered to the second group; FTY720 was administered to the third group at a dose of 0.5 mg/kg once a day; and the compound of Example 1 was administered to the fourth group at a dose of 75 mg/kg twice a day. The administration lasted for 25 days in total. The volume of intragastric administration was 10 ml/kg.
The day when animals were immunized was day 0. Animal body weights were recorded three times a week from day 0 to day 10, and the body weights and clinical scores of the animals were closely observed and recorded daily from day 11.
The experimental data was expressed as mean±standard error of mean (Mean±SEM).
The area under the curve of clinical scores over time (i.e. “AUC of clinical scores” or “area under the curve of clinical scores”) was calculated by analyzing the curve of clinical scores for each animal in each group, and the inhibition rates of the remaining groups (G1, G3, and G4) relative to G2 (solvent control group) were calculated by the mean AUC of clinical scores among groups.

CCS(=O)(=O)c1ccc(CNC(=O)c2cc3c(s2)C(C(C)C)N(C[C@H]2CC[C@H](C(F)(F)F)CC2)C3)nc1 (single isomer, unassigned) [Example 1]
EC50 (RORC2-LBD): < 100 nM
clinical scores of EAE mice ([1]; 25 days, FIG. 1): significantly reduced
inhibition rate of AUC of clinical scores relative to solvent control group ([1]; 25 days, p<0.0001, FIG. 2): 93.2%
morbidity of EAE ([1]; at day 19, stable till the end of the experiment, FIG. 3): 20%
body weights compared among groups ([1]; from the beginning to end, FIG. 4): the highest
body weight changes ([1]; significantly different from solvent control group, FIG. 4): kept increasing
